TGI data for five compounds are collected here from PubChem BioAssay (NCI).

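These data come from cells grown in 96-well plates and exposed to compound for 48 hours at five concentrations. TGI denotes the concentration required for complete inhibition of growth.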

Some test systems named below: NCI-H226 lung; RXF-631 renal; SK-MEL-5 melanoma; COLO 205 colon; SW-620 colon; KM20L2 colon; DMS 273 small cell lung; A549 NSCLC; M19-MEL melanoma; LOX IMVI melanoma; MOLT-4 leukemia; HCC-2998 colon; SNB-78 CNS; CCRF-CEM leukemia; NCI-H23 lung; A498 renal; T-47D breast; HS 578T breast; MDA-N; MDA-MB-435.
What all share (assay): NCI tumour cell line growth inhibition, 48 h

`COc1ccccc1NC(=O)C(=O)C(C(=O)c1ccccc1F)C1OC(=O)c2ccccc21` (stereo not given): the TGI is 43.8 µM with NCI-H226 lung; 67.8 µM in the assay on RXF-631 renal; > 100 µM in the assay on SK-MEL-5 melanoma; 43.6 µM in the assay on COLO 205 colon; > 100 µM in the assay with SW-620 colon; 58.2 µM with KM20L2 colon. The TGI in the assay with DMS 273 small cell lung was > 100 µM; with A549 NSCLC, > 100 µM; in the assay on M19-MEL melanoma it was 61.6 µM; in the assay on LOX IMVI melanoma it was 39.2 µM; in the assay on MOLT-4 leukemia, > 100 µM; in the assay with HCC-2998 colon, 28.8 µM. The TGI in the assay with SNB-78 CNS was > 100 µM; in the assay on CCRF-CEM leukemia it was 67 µM; in the assay with NCI-H23 lung, 57.6 µM; in the assay with A498 renal, > 100 µM.
For `COc1nc(Cl)nc(N[C@H](C)c2c3ccccc3cc3ccccc23)n1`, the TGI was found to be 9.08 µM in the assay on T-47D breast; 21.9 µM in the assay with HS 578T breast; 31.6 µM in the assay with NCI-H226 lung; 19.5 µM in the assay with SK-MEL-5 melanoma; 28.1 µM with COLO 205 colon; 28.8 µM in the assay on SW-620 colon. For the same compound, the TGI stood at 96.2 µM with A549 NSCLC; 33.2 µM in the assay on LOX IMVI melanoma; 40.1 µM in the assay with MOLT-4 leukemia; 8.99 µM in the assay on MDA-N; 15.1 µM in the assay on MDA-MB-435; 29.6 µM in the assay with CCRF-CEM leukemia. The compound further gave a TGI in the assay on NCI-H23 lung of 31.8 µM.
Take `CCOc1ccc2nc(NC(=O)C(=O)C(C(=O)c3ccccc3F)C3OC(=O)c4ccccc43)sc2c1` (stereo not given): the TGI in the assay with NCI-H226 lung amounted to 27.5 µM; with RXF-631 renal, 70.1 µM; in the assay with SK-MEL-5 melanoma, 33.8 µM; with COLO 205 colon, 30.4 µM; with SW-620 colon, 37.5 µM; with KM20L2 colon, 71 µM. Moreover, the TGI in the assay with DMS 273 small cell lung is 51.4 µM; in the assay on A549 NSCLC, 76.4 µM; in the assay with M19-MEL melanoma, 27 µM; with MOLT-4 leukemia it was > 100 µM; in the assay with HCC-2998 colon it was 29.7 µM; with SNB-78 CNS, 74.4 µM. Also, the TGI in the assay with CCRF-CEM leukemia is 40.1 µM; in the assay with A498 renal it was > 100 µM.
Regarding `C[C@H]1S[C@@H](c2ccc(Cl)cc2Cl)N(NC(=O)c2ccncc2)C1=O`, the TGI in the assay on T-47D breast, in the assay on HS 578T breast, in the assay on NCI-H226 lung, in the assay with SK-MEL-5 melanoma, in the assay on COLO 205 colon and with MOLT-4 leukemia was > 100 µM in each case. Moreover, the TGI in the assay on MDA-MB-435, in the assay with CCRF-CEM leukemia, in the assay on NCI-H23 lung and in the assay with A498 renal was > 100 µM throughout.
As to `COC1/C=C/C(C)C(O)CC(O)/C=C/C(C)C(C(C)C(OC)C(C)CCC(=O)C(C)C(C/C=C/N(C)C=O)OC)OC(=O)/C=C/C=C(\C)CC(OC)CC2=CC(=O)O[C@@H](C(C)C(OC)C1)[C@H]2O` (stereo not given in full), the TGI in the assay on T-47D breast is 1.28 µM; in the assay on HS 578T breast, 0.0493 µM; in the assay with SK-MEL-5 melanoma, < 0.005 µM; with COLO 205 colon it was 0.0885 µM; with SW-620 colon, 0.267 µM; with A549 NSCLC it was 0.235 µM. Further, the TGI was determined as 28.2 µM in the assay on MOLT-4 leukemia; 0.136 µM with MDA-N; 0.906 µM with MDA-MB-435; 2.98 µM in the assay on CCRF-CEM leukemia; 0.0437 µM in the assay on NCI-H23 lung; 0.0164 µM in the assay on A498 renal.
